Experimental data taken from ChEMBL document CHEMBL5465560, “Selectivity Literature for EUbOPEN Chemogenomic Library” (2024).

Experiments:
[1] = molecular target: DNA-dependent protein kinase catalytic subunit (Homo sapiens) (UniProt P78527); assay: Selectivity interaction (Kinase panel (KiNativ target engagement assay in Jurkat cells)) EUB0001635a PRKDC; type: cell-based; settings: Selectivity number of off-targets 0.0, Selectivity number of targets 233.0, Source Knowledge https://www.sciencedirect.com/science/article/pii/S2451945619300674?via%3Dihub, at 1 µM
DNA-dependent protein kinase catalytic subunit (Homo sapiens), sequence (P78527 whole entry): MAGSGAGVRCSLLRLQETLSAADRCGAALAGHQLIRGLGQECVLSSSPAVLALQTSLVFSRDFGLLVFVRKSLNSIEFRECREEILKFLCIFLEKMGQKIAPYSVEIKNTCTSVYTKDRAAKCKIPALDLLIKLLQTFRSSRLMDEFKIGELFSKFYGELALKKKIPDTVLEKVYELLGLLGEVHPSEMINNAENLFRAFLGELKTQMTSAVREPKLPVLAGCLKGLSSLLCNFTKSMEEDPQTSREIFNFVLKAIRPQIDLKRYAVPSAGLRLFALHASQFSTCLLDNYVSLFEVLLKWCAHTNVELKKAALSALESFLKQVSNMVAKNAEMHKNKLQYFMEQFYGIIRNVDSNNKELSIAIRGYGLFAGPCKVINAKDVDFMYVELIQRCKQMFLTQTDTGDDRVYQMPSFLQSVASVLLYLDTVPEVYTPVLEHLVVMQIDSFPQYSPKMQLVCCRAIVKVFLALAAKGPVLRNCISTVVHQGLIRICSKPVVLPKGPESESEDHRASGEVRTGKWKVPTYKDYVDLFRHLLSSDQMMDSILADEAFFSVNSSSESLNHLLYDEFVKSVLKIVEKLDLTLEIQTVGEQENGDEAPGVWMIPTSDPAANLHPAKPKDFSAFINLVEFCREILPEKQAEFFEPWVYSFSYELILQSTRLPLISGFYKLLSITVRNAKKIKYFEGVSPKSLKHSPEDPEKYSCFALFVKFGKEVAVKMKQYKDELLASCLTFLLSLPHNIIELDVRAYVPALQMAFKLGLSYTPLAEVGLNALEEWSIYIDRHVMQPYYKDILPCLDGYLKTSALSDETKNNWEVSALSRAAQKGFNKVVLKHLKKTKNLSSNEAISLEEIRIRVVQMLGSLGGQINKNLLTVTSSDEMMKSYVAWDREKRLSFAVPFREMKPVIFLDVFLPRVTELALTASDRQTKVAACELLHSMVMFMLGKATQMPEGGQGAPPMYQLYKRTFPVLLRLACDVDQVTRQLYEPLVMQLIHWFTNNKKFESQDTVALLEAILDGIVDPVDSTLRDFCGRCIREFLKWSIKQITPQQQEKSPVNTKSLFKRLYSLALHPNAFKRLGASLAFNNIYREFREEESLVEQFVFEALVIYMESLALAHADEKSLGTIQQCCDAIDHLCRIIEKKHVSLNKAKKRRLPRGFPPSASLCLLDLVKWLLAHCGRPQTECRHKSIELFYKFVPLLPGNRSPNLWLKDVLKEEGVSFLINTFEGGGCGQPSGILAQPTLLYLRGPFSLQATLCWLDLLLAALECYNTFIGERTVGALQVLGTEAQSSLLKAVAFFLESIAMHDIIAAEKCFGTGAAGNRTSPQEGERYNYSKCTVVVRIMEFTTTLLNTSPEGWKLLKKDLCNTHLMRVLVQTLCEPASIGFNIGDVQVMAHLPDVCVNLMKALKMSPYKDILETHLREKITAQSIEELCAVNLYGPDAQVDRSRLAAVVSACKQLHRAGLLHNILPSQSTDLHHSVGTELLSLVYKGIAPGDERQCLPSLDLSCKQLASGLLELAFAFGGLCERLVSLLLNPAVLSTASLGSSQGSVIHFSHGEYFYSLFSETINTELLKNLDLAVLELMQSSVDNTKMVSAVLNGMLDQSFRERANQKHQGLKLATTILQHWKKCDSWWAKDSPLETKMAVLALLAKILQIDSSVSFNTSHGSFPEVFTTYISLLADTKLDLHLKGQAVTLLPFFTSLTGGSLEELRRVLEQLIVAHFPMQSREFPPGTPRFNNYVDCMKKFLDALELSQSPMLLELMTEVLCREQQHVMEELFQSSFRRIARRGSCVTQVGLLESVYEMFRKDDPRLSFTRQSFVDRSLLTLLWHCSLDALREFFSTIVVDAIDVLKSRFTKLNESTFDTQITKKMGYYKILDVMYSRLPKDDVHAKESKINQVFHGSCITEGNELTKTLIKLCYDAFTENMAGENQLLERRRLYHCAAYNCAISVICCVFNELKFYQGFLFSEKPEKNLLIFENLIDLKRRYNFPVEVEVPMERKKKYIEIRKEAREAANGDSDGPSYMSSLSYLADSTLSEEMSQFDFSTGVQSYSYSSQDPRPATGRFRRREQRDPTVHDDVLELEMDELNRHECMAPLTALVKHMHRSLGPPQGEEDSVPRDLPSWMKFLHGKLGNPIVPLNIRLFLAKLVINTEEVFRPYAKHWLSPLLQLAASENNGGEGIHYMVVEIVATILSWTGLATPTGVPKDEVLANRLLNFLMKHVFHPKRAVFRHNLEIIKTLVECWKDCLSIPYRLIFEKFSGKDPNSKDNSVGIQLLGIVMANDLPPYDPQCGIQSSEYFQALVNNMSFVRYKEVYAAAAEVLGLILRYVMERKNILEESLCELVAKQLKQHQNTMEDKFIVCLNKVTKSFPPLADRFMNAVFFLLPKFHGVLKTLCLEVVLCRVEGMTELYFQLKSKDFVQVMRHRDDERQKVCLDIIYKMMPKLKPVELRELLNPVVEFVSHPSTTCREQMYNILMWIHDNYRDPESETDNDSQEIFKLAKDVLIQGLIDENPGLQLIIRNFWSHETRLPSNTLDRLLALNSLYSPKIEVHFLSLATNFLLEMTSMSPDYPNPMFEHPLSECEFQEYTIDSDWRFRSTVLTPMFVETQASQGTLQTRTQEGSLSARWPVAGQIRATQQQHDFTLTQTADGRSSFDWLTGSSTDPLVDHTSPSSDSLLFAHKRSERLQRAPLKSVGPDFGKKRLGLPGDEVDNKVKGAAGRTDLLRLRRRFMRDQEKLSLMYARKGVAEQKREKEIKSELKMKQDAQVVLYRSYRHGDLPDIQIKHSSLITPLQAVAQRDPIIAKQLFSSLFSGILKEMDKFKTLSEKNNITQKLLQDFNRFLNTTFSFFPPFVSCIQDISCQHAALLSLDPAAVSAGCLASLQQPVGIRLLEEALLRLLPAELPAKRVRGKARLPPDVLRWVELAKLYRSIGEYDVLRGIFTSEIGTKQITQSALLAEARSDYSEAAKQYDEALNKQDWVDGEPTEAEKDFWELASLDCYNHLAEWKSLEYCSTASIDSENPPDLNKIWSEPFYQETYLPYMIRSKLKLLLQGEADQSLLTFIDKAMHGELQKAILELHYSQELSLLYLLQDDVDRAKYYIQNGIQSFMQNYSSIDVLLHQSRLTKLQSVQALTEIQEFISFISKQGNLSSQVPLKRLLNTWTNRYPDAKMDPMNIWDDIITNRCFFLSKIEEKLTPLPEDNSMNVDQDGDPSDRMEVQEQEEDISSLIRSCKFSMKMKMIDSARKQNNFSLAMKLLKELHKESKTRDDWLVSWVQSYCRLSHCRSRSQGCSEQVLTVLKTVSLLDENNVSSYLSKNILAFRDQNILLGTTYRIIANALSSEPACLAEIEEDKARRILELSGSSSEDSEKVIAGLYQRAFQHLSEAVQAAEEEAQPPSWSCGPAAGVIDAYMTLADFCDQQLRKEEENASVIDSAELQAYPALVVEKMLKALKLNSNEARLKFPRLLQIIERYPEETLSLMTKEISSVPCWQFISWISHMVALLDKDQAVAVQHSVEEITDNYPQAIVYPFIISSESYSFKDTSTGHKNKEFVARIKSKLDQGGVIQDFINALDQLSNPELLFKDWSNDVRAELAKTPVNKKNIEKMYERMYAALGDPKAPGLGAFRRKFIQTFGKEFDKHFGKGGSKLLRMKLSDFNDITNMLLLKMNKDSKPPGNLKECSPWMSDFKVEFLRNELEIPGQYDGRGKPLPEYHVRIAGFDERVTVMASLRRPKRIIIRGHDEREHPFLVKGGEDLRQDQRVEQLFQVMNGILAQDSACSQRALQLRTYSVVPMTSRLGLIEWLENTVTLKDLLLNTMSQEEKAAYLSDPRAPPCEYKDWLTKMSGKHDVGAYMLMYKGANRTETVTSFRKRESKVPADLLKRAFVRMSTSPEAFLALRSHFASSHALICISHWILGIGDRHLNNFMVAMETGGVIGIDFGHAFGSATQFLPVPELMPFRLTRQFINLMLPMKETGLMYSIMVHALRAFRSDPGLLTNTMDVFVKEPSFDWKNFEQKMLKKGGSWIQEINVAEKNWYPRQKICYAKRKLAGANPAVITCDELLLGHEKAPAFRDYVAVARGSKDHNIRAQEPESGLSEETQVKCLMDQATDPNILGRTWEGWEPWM

[2] = molecular target: T1, Bromodomain-containing protein 1 (Homo sapiens) (UniProt O95696); assay: Selectivity interaction (Human bromodomain panel (DSF assay)) EUB0000233b BRD1
T1 sequence (whole entry): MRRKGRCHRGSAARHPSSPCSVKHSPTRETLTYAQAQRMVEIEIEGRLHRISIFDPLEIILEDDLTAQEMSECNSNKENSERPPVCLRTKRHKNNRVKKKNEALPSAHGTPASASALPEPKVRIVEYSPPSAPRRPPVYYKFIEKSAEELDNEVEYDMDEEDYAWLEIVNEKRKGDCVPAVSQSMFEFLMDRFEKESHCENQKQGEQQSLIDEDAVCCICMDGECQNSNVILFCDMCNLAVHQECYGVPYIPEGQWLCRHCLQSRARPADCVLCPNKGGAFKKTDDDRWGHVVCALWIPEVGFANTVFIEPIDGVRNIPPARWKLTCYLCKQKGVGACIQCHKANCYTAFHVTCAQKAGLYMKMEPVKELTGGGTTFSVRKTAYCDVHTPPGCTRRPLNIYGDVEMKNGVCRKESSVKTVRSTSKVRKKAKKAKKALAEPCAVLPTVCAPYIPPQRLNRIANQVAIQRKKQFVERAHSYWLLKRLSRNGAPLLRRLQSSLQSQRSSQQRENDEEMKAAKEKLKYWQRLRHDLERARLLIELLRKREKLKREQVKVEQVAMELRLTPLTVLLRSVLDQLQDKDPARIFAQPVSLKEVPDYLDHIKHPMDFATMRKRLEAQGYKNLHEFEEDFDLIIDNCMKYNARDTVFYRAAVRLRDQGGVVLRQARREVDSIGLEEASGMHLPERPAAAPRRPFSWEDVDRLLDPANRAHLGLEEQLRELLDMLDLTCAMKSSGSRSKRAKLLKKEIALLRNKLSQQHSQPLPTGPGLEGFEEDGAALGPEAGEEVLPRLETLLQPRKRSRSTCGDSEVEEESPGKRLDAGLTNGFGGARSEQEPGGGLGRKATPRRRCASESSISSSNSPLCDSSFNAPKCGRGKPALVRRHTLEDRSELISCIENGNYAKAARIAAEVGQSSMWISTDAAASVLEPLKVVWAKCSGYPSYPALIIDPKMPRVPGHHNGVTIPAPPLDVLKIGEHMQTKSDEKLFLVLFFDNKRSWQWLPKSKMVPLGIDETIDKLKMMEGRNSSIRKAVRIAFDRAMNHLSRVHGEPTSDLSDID

[3] = molecular target: Mitogen-activated protein kinase 7 (Homo sapiens) (UniProt Q13164); assay: Selectivity interaction (KinomeScan (DiscoverX)) EUB0000229b MAPK7; settings: at 10 µM
Mitogen-activated protein kinase 7 (Homo sapiens), sequence (Q13164 2-816 limits assumed): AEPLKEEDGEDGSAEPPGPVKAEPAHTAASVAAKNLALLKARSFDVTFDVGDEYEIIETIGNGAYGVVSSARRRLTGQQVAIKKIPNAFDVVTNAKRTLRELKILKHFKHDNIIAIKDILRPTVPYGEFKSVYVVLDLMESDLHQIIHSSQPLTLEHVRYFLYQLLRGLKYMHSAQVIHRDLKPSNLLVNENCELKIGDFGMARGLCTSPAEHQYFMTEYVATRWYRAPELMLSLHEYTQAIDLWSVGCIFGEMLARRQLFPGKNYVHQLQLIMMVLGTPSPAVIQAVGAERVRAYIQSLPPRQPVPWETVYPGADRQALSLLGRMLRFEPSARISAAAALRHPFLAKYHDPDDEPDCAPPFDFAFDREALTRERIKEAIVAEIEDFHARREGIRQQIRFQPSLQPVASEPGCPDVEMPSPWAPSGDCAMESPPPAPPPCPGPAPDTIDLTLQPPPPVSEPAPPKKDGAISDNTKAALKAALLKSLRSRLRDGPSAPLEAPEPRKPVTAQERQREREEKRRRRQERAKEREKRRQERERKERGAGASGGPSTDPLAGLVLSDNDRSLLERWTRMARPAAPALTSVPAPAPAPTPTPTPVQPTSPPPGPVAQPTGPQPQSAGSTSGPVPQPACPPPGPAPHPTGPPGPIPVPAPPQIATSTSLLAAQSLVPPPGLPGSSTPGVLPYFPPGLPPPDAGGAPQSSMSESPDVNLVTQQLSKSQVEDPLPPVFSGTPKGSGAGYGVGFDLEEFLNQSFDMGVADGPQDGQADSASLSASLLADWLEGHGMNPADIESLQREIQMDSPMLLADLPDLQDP

[4] = molecular target: T2, Activin receptor type-1B (Homo sapiens) (UniProt P36896); assay: Selectivity interaction (KinomeScan (DiscoverX)) EUB0000045b ACVR1B
T2 sequence (whole entry): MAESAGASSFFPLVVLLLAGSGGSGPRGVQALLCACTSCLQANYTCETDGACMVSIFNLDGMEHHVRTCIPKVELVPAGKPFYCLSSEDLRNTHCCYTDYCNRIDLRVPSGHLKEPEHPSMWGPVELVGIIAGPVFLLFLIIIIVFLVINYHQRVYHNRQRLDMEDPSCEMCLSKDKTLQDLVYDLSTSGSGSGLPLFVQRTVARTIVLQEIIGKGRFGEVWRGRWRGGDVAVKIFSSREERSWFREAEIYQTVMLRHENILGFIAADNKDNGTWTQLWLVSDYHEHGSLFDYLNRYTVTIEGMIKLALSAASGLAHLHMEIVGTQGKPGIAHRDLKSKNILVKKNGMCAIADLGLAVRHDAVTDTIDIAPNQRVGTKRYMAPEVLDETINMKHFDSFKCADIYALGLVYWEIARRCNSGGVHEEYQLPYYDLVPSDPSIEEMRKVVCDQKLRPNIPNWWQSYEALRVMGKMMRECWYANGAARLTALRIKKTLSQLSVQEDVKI

[5] = molecular target: Dual specificity protein kinase CLK3 (Homo sapiens, UniProt P49761); settings: at 10 µM

## C=CC(=O)Nc1ccc(C(=O)Nc2[nH]nc3c2CN(C(=O)N[C@H](CN(C)C)c2ccccc2)C3(C)C)cc1
[1]
  % of engagement: -14%

## CN(C)CCCOc1ccc(-c2cc(NCCCn3cccn3)nc(S(C)(=O)=O)n2)cc1
[2]
  dTM: < 2 K

## COc1cc(N(C)c2ccnc3ccc(C(F)(F)F)cc23)cc(OC)c1OC
[3]
  % binding: 87%

## C=CC(=O)Nc1cc(-n2c(=O)ccc3cnc4ccc(-c5ccc(NS(C)(=O)=O)cc5)cc4c32)ccc1C
[4]; at 1 µM
  % of control: 84%
[4]; at 10 µM
  % of control: 100%

## Cc1cc([C@@H](C)Nc2ccccc2C(=O)O)c2nc(N3CCOCC3)cc(=O)n2c1 [AZD-6482]
[5]
  % of control: 100%
